From PubChem BioAssay AID1963830 (Molecular Pharmacology Branch, DTP, NCI, 2024)

Test system: 922993-354-T-J3-PDC complex spheroid viability
Experiment: Anticancer human tumor 922993-354-T-J3-PDC patient-derived endometrial carcinoma cell line growth inhibition [POLQ]
Settings: for IC50: curve of first compound; for viability, T/C: stronger effect = lower value
Method in brief: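 Complex spheroid viability model combining PDC tumour cells with endothelial (HUVEC) and MSC stromal cells. Novobiocin, ART-558 or RP6685 were tested singly and in combination with standard and investigational anticancer drugs. Each was titrated in half-log steps from near clinical Cmax, or from 10 microM where Cmax was unknown.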

[1] = second compound 0.0316 µM, first compound 0.0316 µM
[2] = second compound 0.0316 µM, first compound 0.1 µM
[3] = second compound 0.0316 µM, first compound 0.316 µM
[4] = second compound 0.0316 µM, first compound 1 µM
[5] = second compound 0.1 µM, first compound 0.0316 µM
[6] = second compound 0.1 µM, first compound 0.1 µM
[7] = second compound 0.1 µM, first compound 0.316 µM
[8] = second compound 0.1 µM, first compound 1 µM
[9] = second compound 0.316 µM, first compound 0.0316 µM
[10] = second compound 0.316 µM, first compound 0.1 µM
[11] = second compound 0.316 µM, first compound 0.316 µM
[12] = second compound 0.316 µM, first compound 1 µM
[13] = second compound 1 µM, first compound 0.0316 µM
[14] = second compound 1 µM, first compound 0.1 µM
[15] = second compound 1 µM, first compound 0.316 µM
[16] = second compound 1 µM, first compound 1 µM
[17] = second compound 3.16 µM, first compound 0.0316 µM
[18] = second compound 3.16 µM, first compound 0.1 µM
[19] = second compound 3.16 µM, first compound 0.316 µM
[20] = second compound 3.16 µM, first compound 1 µM
[21] = second compound 10 µM, first compound 0.0316 µM
[22] = second compound 10 µM, first compound 0.1 µM
[23] = second compound 10 µM, first compound 0.316 µM
[24] = second compound 10 µM, first compound 1 µM
[25] = second compound 0.0316 µM, first compound 3.16 µM
[26] = second compound 0.0316 µM, first compound 10 µM
[27] = second compound 0.1 µM, first compound 3.16 µM
[28] = second compound 0.1 µM, first compound 10 µM
[29] = second compound 0.316 µM, first compound 3.16 µM
[30] = second compound 0.316 µM, first compound 10 µM
[31] = second compound 1 µM, first compound 3.16 µM
[32] = second compound 1 µM, first compound 10 µM
[33] = second compound 3.16 µM, first compound 3.16 µM
[34] = second compound 3.16 µM, first compound 10 µM
[35] = second compound 10 µM, first compound 3.16 µM
[36] = second compound 10 µM, first compound 10 µM
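Also: spheroids exposed to the agents for one week.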
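For viability, T/C in this document: 100% = DMSO vehicle control wells.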

C=CCn1c(=O)c2cnc(Nc3ccc(N4CCN(C)CC4)cc3)nc2n1-c1cccc(C(C)(C)O)n1 + Cc1cccc(N(C)C(=O)C2C(O)CCN2c2nc(C)cc(C(F)(F)F)c2C#N)c1
IC50 (second compound 0.0316 µM): > 1 µM
IC50 (second compound 0.1 µM): > 1 µM
IC50 (second compound 0.316 µM): > 1 µM
IC50 (second compound 1 µM): > 1 µM
IC50 (second compound 3.16 µM): > 1 µM
IC50 (second compound 10 µM): > 1 µM
viability, T/C (second compound 0.0316 µM, first compound 0.00316 µM): 101%
viability, T/C (second compound 0.0316 µM, first compound 0.01 µM): 105%
viability, T/C [1]: 102%
viability, T/C [2]: 101%
viability, T/C [3]: 105%
viability, T/C [4]: 102%
viability, T/C (second compound 0.1 µM, first compound 0.00316 µM): 105%
viability, T/C (second compound 0.1 µM, first compound 0.01 µM): 104%
viability, T/C [5]: 99.5%
viability, T/C [6]: 103%
viability, T/C [7]: 105%
viability, T/C [8]: 101%
viability, T/C (second compound 0.316 µM, first compound 0.00316 µM): 103%
viability, T/C (second compound 0.316 µM, first compound 0.01 µM): 106%
viability, T/C [9]: 98.1%
viability, T/C [10]: 104%
viability, T/C [11]: 104%
viability, T/C [12]: 103%
viability, T/C (second compound 1 µM, first compound 0.00316 µM): 105%
viability, T/C (second compound 1 µM, first compound 0.01 µM): 101%
viability, T/C [13]: 106%
viability, T/C [14]: 99.1%
viability, T/C [15]: 104%
viability, T/C [16]: 104%
viability, T/C (second compound 3.16 µM, first compound 0.00316 µM): 99.9%
viability, T/C (second compound 3.16 µM, first compound 0.01 µM): 101%
viability, T/C [17]: 100%
viability, T/C [18]: 101%
viability, T/C [19]: 104%
viability, T/C [20]: 99%
viability, T/C (second compound 10 µM, first compound 0.00316 µM): 103%
viability, T/C (second compound 10 µM, first compound 0.01 µM): 97.1%
viability, T/C [21]: 98.5%
viability, T/C [22]: 97.3%
viability, T/C [23]: 103%
viability, T/C [24]: 94.2%

Nc1ccn(C2OC(CO)C(O)C2(F)F)c(=O)n1 (stereo not drawn) + Nc1ccc(C#CCN(C(=O)Cc2ncc(C(F)(F)F)cc2C(F)(F)F)c2ccc(F)cc2)nn1
IC50 (second compound 0.0316 µM): < 0.0316 µM
IC50 (second compound 0.1 µM): < 0.0316 µM
IC50 (second compound 0.316 µM): < 0.0316 µM
IC50 (second compound 1 µM): < 0.0316 µM
IC50 (second compound 3.16 µM): < 0.0316 µM
IC50 (second compound 10 µM): < 0.0316 µM
viability, T/C [1]: 25.5%
viability, T/C [2]: 25%
viability, T/C [3]: 20.9%
viability, T/C [4]: 22.2%
viability, T/C [25]: 22.2%
viability, T/C [26]: 17.2%
viability, T/C [5]: 25.9%
viability, T/C [6]: 25.5%
viability, T/C [7]: 18.4%
viability, T/C [8]: 21.9%
viability, T/C [27]: 21.3%
viability, T/C [28]: 19.4%
viability, T/C [9]: 24.9%
viability, T/C [10]: 24%
viability, T/C [11]: 22.1%
viability, T/C [12]: 20.1%
viability, T/C [29]: 22.4%
viability, T/C [30]: 20.5%
viability, T/C [13]: 23.1%
viability, T/C [14]: 19.1%
viability, T/C [15]: 22.7%
viability, T/C [16]: 21.8%
viability, T/C [31]: 21.3%
viability, T/C [32]: 23.3%
viability, T/C [17]: 23.4%
viability, T/C [18]: 18.7%
viability, T/C [19]: 19.1%
viability, T/C [20]: 20.4%
viability, T/C [33]: 21.1%
viability, T/C [34]: 20.8%
viability, T/C [21]: 23.2%
viability, T/C [22]: 18.9%
viability, T/C [23]: 21.9%
viability, T/C [24]: 18.4%
viability, T/C [35]: 20.1%
viability, T/C [36]: 17.5%

CCCS(=O)(=O)Nc1ccc(F)c(C(=O)c2c[nH]c3ncc(-c4ccc(Cl)cc4)cc23)c1F + Cc1cccc(N(C)C(=O)C2C(O)CCN2c2nc(C)cc(C(F)(F)F)c2C#N)c1
IC50 (second compound 0.0316 µM): > 10 µM
IC50 (second compound 0.1 µM): > 10 µM
IC50 (second compound 0.316 µM): > 10 µM
IC50 (second compound 1 µM): > 10 µM
IC50 (second compound 3.16 µM): > 10 µM
IC50 (second compound 10 µM): > 10 µM
viability, T/C [1]: 103%
viability, T/C [2]: 99.5%
viability, T/C [3]: 103%
viability, T/C [4]: 98.1%
viability, T/C [25]: 106%
viability, T/C [26]: 97.5%
viability, T/C [5]: 101%
viability, T/C [6]: 102%
viability, T/C [7]: 103%
viability, T/C [8]: 100%
viability, T/C [27]: 102%
viability, T/C [28]: 90.1%
viability, T/C [9]: 104%
viability, T/C [10]: 101%
viability, T/C [11]: 105%
viability, T/C [12]: 104%
viability, T/C [29]: 103%
viability, T/C [30]: 95.8%
viability, T/C [13]: 102%
viability, T/C [14]: 99.8%
viability, T/C [15]: 100%
viability, T/C [16]: 103%
viability, T/C [31]: 105%
viability, T/C [32]: 95%
viability, T/C [17]: 102%
viability, T/C [18]: 103%
viability, T/C [19]: 101%
viability, T/C [20]: 97.7%
viability, T/C [33]: 107%
viability, T/C [34]: 94.5%
viability, T/C [21]: 98.6%
viability, T/C [22]: 103%
viability, T/C [23]: 104%
viability, T/C [24]: 100%
viability, T/C [35]: 108%
viability, T/C [36]: 93.2%

COc1ccc([C@@H](O)c2cc(-c3ncnc4cc(N5CCOCC5)ccc34)c(F)cc2Cl)nn1 + Cc1cccc(N(C)C(=O)C2C(O)CCN2c2nc(C)cc(C(F)(F)F)c2C#N)c1
IC50 (second compound 0.0316 µM): > 10 µM
IC50 (second compound 0.1 µM): > 10 µM
IC50 (second compound 0.316 µM): > 10 µM
IC50 (second compound 1 µM): > 10 µM
IC50 (second compound 3.16 µM): > 10 µM
IC50 (second compound 10 µM): > 10 µM
viability, T/C [1]: 94%
viability, T/C [2]: 85.9%
viability, T/C [3]: 97.3%
viability, T/C [4]: 98.3%
viability, T/C [25]: 85.4%
viability, T/C [26]: 58.2%
viability, T/C [5]: 97.2%
viability, T/C [6]: 99.5%
viability, T/C [7]: 104%
viability, T/C [8]: 94.6%
viability, T/C [27]: 81.1%
viability, T/C [28]: 63.9%
viability, T/C [9]: 99.9%
viability, T/C [10]: 104%
viability, T/C [11]: 98.5%
viability, T/C [12]: 84.3%
viability, T/C [29]: 82.9%
viability, T/C [30]: 62.6%
viability, T/C [13]: 101%
viability, T/C [14]: 93.5%
viability, T/C [15]: 103%
viability, T/C [16]: 103%
viability, T/C [31]: 79%
viability, T/C [32]: 62.7%
viability, T/C [17]: 103%
viability, T/C [18]: 102%
viability, T/C [19]: 102%
viability, T/C [20]: 86.9%
viability, T/C [33]: 80.2%
viability, T/C [34]: 60.5%
viability, T/C [21]: 93.6%
viability, T/C [22]: 95%
viability, T/C [23]: 91.4%
viability, T/C [24]: 83.7%
viability, T/C [35]: 78%
viability, T/C [36]: 57.9%
